According to patent US8143393B2, “Substituted 4-amino-pyrrolotriazine derivatives useful for treating hyper-proliferative disorders and diseases associated with angiogenesis” (Bayer HealthCare LLC, priority 2005, dated 2012):

Key:
FGFR-1 = target: T1, FGFR-1 (Homo sapiens, UniProt P11362); experiment: FGFR-1 TR-FRET biochemical assay; conditions: 0.6 uM ATP, 5 nM FGFR1-GST; bounds given in nM
T1 construct: GST; made in house
Summary of the method: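 FGFR1-GST (5 nM) was incubated with poly GT-biotin (25 nM) and 0.6 uM ATP in HEPES pH 7.5/MgCl2 with 1% DMSO for 1 h at room temperature. Phosphorylation was read by LANCE TR-FRET (Eu-anti-pTyr/SA-APC, 665/615 ratio). Percent inhibition was background-corrected against no-ATP wells, with final compound concentrations of 10 μM–0.128 nM.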

[1] = system: histone 3 phosphorylation in colon carcinoma (HCT116); experiment: p-Histone3 assay; type: cell-based; conditions: Homo sapiens, HCT-116, 24 h, HCT116, 24 h treatment
Procedure: Compounds were assayed for the inhibition of histone 3 phosphorylation in colon carcinoma (HCT116). Briefly, 20,000 cells/well were seeded in a 96-well black-walled, poly-d-lysine plates in RPMI+10% FBS and incubated at 37° C. in 5% CO2 overnight. The following day, the cells were treated with compounds for 24 hours at 37° C. Following compound treatment; plates were centrifuged at 1000 rpm for 2 minutes and washed twice with 100 μl of cold sterile TBS. Cells were then fixed with cold 3.7% formaldehyde in TBS (4° C. for 1 hour) and then permeabolized with 0.1% Triton-X-100 in TBS (room temperature for 30 minutes). Plates were then washed with of 0.25% BSA-TBS and blocked with BSA solution for 1 hour at room temperature while shaking. The supernatant was removed and replaced with diluted primary antibody (anti-phospho-histone 3, serine 10, Cell Signaling) at 1:250 in 0.25% BSA-TBS and incubated overnight at 4° C. The plates were washed and treated with diluted secondary antibody (anti-rabbit Eu-labeled) at 1:10000 in 0.25% BSA-TBS (room temperature for 1 hour). The antibody solution was removed from each well and washed eight times. The wash buffer was replaced with 50 μl pre-warmed enhancement solution and mixed on the orbital shaker for 10 minutes. Fluorescence was detected with a Victor V Fluorescence Detector. The data are expressed as percent inhibition: % inhibition=100−((Signal with inhibitor−background)/(Signal without inhibitor−background))−100.

[2] = lower bound of the bin 'greater than 500 nM but less than 5 μM'

T1 sequence (P11362 22-822): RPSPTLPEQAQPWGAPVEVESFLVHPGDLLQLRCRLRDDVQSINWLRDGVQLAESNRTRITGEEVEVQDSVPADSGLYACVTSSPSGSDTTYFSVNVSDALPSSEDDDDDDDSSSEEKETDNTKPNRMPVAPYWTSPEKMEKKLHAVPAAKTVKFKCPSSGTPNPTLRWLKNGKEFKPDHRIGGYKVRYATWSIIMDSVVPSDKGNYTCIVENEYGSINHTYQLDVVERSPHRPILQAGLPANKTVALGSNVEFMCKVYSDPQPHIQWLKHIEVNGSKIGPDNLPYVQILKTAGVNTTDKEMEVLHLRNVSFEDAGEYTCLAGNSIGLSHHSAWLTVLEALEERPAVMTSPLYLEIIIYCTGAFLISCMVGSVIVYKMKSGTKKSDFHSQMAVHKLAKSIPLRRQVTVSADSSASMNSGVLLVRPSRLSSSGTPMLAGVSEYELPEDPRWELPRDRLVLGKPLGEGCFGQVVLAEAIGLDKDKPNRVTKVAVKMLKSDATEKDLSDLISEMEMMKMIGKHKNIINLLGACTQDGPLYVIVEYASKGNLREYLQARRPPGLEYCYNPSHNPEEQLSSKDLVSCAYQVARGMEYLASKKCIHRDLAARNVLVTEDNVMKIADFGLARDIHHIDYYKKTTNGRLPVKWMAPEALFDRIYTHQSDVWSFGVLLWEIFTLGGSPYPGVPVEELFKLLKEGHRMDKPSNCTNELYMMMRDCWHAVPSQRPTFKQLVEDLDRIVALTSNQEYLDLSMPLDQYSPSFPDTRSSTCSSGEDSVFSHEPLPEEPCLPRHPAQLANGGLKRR

Row | IC50 (FGFR-1) [nM] | IC50 ([1]; bounds given in μM) [µM] | IC50 [1, 2] [µM] | SMILES
1 | < 10 | < 5 | > 0.5 | Nc1ncnn2c(CN3CCOCC3)cc(-c3ccc(NC(=O)Nc4cccc(C(F)(F)F)c4)c(F)c3)c12 [Example 10, N-{4-[4-amino-7-(morpholin-4-ylmethyl)pyrrolo[2,1-f][1,2,4]triazin-5-yl]-2-fluorophenyl}-N′-[3-(trifluoromethyl)phenyl]urea]
2 | < 10 | < 5 | > 0.5 | Nc1ncnn2c(CN3CCOCC3)cc(-c3cc(F)c(NC(=O)Nc4cc(C(F)(F)F)ccc4F)cc3F)c12 [Example 15, N-{4-[4-amino-7-(morpholin-4-ylmethyl)pyrrolo[2,1-f][1,2,4]triazin-5-yl]-2,5-difluorophenyl}-N′-[2-fluoro-5-(trifluoromethyl)phenyl]urea]
3 | < 10 | < 5 | > 0.5 | Nc1ncnn2c(CN3CCOCC3)cc(-c3ccc(NC(=O)Nc4cc(C(F)(F)F)ccc4F)cc3F)c12 [Example 16, N-{4-[4-amino-7-(morpholin-4-ylmethyl)pyrrolo[2,1-f][1,2,4]triazin-5-yl]-3-fluorophenyl}-N′-[2-fluoro-5-(trifluoromethyl)phenyl]urea]
4 | < 10 | < 5 | > 0.5 | Cc1cc(-c2cc(CN3CCOCC3)n3ncnc(N)c23)ccc1NC(=O)Nc1cc(C(F)(F)F)ccc1F [Example 25, N-{4-[4-amino-7-(morpholin-4-ylmethyl)pyrrolo[2,1-f][1,2,4]triazin-5-yl]-2-methylphenyl}-N′-[2-fluoro-5-(trifluoromethyl)phenyl]urea]
5 | 10 to 100 | 5 to 10 |  | COc1ccc(C(C)(C)C)cc1NC(=O)Nc1ccc(-c2cc(CN3CCOCC3)n3ncnc(N)c23)cc1 [Example 44, N-{4-[4-amino-7-(morpholin-4-ylmethyl)pyrrolo[2,1-f][1,2,4]triazin-5-yl]phenyl}-N′-(5-tert-butyl-2-methoxyphenyl)urea]
6 |  | 5 to 10 |  | Cc1ccc(F)c(NC(=O)Nc2ccc(-c3cc(CN4CCOCC4)n4ncnc(N)c34)cc2)c1 [Example 46, N-{4-[4-amino-7-(morpholin-4-ylmethyl)pyrrolo[2,1-f][1,2,4]triazin-5-yl]phenyl}-N′-(2-fluoro-5-methylphenyl)urea]
7 |  | 5 to 10 |  | Nc1ncnn2c(CN3CCOCC3)cc(-c3ccc(NC(=O)Nc4ccc(C(F)(F)F)cn4)cc3)c12 [Example 56, N-{4-[4-amino-7-(morpholin-4-ylmethyl)pyrrolo[2,1-f][1,2,4]-triazin-5-yl]phenyl}-N′-[5-(trifluoromethyl)pyridin-2-yl]urea]
8 |  | 5 to 10 |  | COc1cccc(NC(=O)Nc2ccc(-c3cc(CN4CCOCC4)n4ncnc(N)c34)cc2F)n1 [Example 72, N-4-[4-amino-7-(morpholin-4-ylmethyl)pyrrolo[2,1-f][1,2,4]triazin-5-yl]-2-fluorophenyl-N′-(6-methoxypyridin-2-yl)urea]
9 |  | 5 to 10 |  | Nc1ncnn2c(CN3CCOCC3)cc(-c3ccc(NC(=O)Nc4cccc(Br)n4)c(F)c3)c12 [Example 73, N-4-[4-amino-7-(morpholin-4-ylmethyl)pyrrolo[2,1-f][1,2,4]-triazin-5-yl]-2-fluorophenyl-N′-(6-bromopyridin-2-yl)urea]
10 | 10 to 100 | < 5 | > 0.5 | CS(=O)(=O)N1CCN(Cc2cc(-c3ccc(NC(=O)Nc4cc(C(F)(F)F)ccc4F)cc3)c3c(N)ncnn23)CC1 [Example 83, N-[4-(4-amino-7{[4(methylsulfonyl)-piperazin-1-yl]methyl}pyrrolo[2,1-f][1,2,4]triazin-5-yl)phenyl]-N′-[2-fluoro-5-(trifluoromethyl)phenyl]urea]
11 |  | < 5 | > 0.5 | CC(=O)N1CCN(Cc2cc(-c3ccc(NC(=O)Nc4cc(C(F)(F)F)ccc4F)cc3)c3c(N)ncnn23)CC1 [Example 87, N-(4-{7-[(4-acetylpiperazin-1-yl)methyl]-4-aminopyrrolo[2,1-f][1,2,4]triazin-5-yl}phenyl)-N′-[2-fluoro-5-(trifluoromethyl)phenyl]urea]
12 |  | < 5 | > 0.5 | Nc1ncnn2c(CN3CCNCC3)cc(-c3ccc(NC(=O)Nc4cccc(Br)n4)cc3)c12 [Example 91, N-4-[4-amino-7-(piperazin-1-ylmethyl)pyrrolo[2,1-f][1,2,4]-triazin-5-yl]phenyl-N′-(6-bromopyridin-2-yl)urea]
13 |  | < 5 | > 0.5 | CC(=O)N1CCN(Cc2cc(-c3ccc(NC(=O)Nc4cccc(Br)n4)cc3)c3c(N)ncnn23)CC1 [Example 93, N-(4-7-[(4-acetylpiperazin-1-yl)methyl]-4-aminopyrrolo[2,1-f][1,2,4]triazin-5-ylphenyl)-N′-(6-bromopyridin-2-yl)urea]
14 |  | < 5 | > 0.5 | CS(=O)(=O)N1CCN(Cc2cc(-c3ccc(NC(=O)Nc4cccc(Br)n4)cc3)c3c(N)ncnn23)CC1 [Example 94, N-[4-(4-amino-7-[4-(methylsulfonyl)piperazin-1-yl]methylpyrrolo[2,1-f][1,2,4]triazin-5-yl)phenyl]-N′-(6-bromopyridin-2-yl)urea]
15 |  | < 5 | > 0.5 | Nc1ncnn2c(CO)cc(-c3ccc(NC(=O)Nc4cccc(C(F)(F)F)n4)cc3)c12 [Example 105, N-{4-[4-amino-7-(hydroxymethyl)pyrrolo[2,1-f][1,2,4]triazin-5-yl]phenyl}-N′-[6-(trifluoromethyl)pyridin-2-yl]urea]
16 | < 10 |  |  | Nc1ncnn2c(CN3CCOCC3)cc(-c3ccc(NC(=O)Nc4cccc(C(F)(F)F)c4)c(C(F)(F)F)c3)c12 [Example 269, N-[4-[4-amino-7-(morpholin-4-ylmethyl)pyrrolo[2,1-f][1,2,4]triazin-5-yl]-2-(trifluoromethyl)phenyl]-N′-[3-(trifluoromethyl)phenyl]urea]
17 | 10 to 100 |  |  | Nc1ncnn2c(-c3cnco3)cc(-c3ccc(NC(=O)Nc4cc(C(F)(F)F)ccn4)c(F)c3)c12 [Example 273, N-{4-[4-amino-7-(1,3-oxazol-5-yl)pyrrolo[2,1-f][1,2,4]triazin-5-yl]-2fluorophenyl}-N′-[4-(trifluoromethyl)pyridin-2-yl]urea]
18 | 10 to 100 |  |  | Nc1ncnn2c(CC3CNCCO3)cc(-c3ccc(NC(=O)Nc4cc(C(F)(F)F)ccc4F)c(F)c3)c12 (stereo not shown) [Example 276, N-{4-[4-amino-7-(morpholin-2-ylmethyl)pyrrolo[2,1-f][1,2,4]triazin-5-yl]-2-fluorophenyl}-N′-[2-fluoro-5-(trifluoromethyl)phenyl]urea]
19 | 10 to 100 |  |  | Nc1ncnn2c(C(=O)NCC3CNCCO3)cc(-c3ccc(NC(=O)Nc4cc(C(F)(F)F)ccc4F)c(F)c3)c12 (stereo not shown) [Example 283, 4-amino-5-{3-fluoro-4-[({[2-fluoro-5-(trifluoromethyl)-phenyl]amino}carbonyl)amino]phenyl}-N-(morpholin-2-ylmethyl)pyrrolo[2,1-f][1,2,4]triazine-7-carboxamide]
20 | 10 to 100 |  |  | COC[C@H]1CCCN1C(=O)c1cc(-c2ccc(NC(=O)Nc3cc(C(F)(F)F)ccc3F)c(F)c2)c2c(N)ncnn12 [Example 284, N-[4-(4-amino-7-{[2-(methoxymethyl)pyrrolidin-1-yl]carbonyl}pyrrolo[2,1-f][1,2,4]triazin-5-yl)-2-fluorophenyl]-N′-[2-fluoro-5-(trifluoromethyl)phenyl]urea]
21 | < 10 |  |  | Nc1ncnn2c(CN3CCOCC3)cc(-c3ccc(NC(=O)Nc4cc(C(F)(F)F)cc[n+]4[O-])c(F)c3)c12 [Example 287, N-{4-[4-amino-7-(morpholin-4-ylmethyl)pyrrolo[2,1-f][1,2,4]triazin-5-yl]-2-fluorophenyl}-N′-[1-oxido-4-(trifluoromethyl)pyridin-2-yl]urea]
22 | 10 to 100 |  |  | Nc1ncnn2c(C(=O)C3CNCCO3)cc(-c3ccc(NC(=O)Nc4cc(C(F)(F)F)ccc4F)c(F)c3)c12 (stereo not shown) [Example 289, N-{4-[4-amino-7-(morpholin-2-ylcarbonyl)pyrrolo[2,1-f][1,2,4]triazin-5-yl]-2-fluorophenyl}-N′-[2-fluoro-5-(trifluoromethyl)phenyl]urea]
23 | 10 to 100 |  |  | Nc1ncnn2c(C(=O)NCC3CNCCO3)cc(-c3ccc(NC(=O)Nc4cccc(C(F)(F)F)c4)c(F)c3)c12 (stereo not shown) [Example 293, 4-amino-5-{3-fluoro-4-[({[3-(trifluoromethyl)phenyl]-amino}carbonyl)amino]phenyl}-N-(morpholin-2-ylmethyl)pyrrolo[2,1-f][1,2,4]-triazine-7-carboxamide]
24 | 10 to 100 |  |  | Nc1ncnn2c(CC3CNCCO3)cc(-c3ccc(NC(=O)Nc4cccc(C(F)(F)F)c4)c(F)c3)c12 (stereo not shown) [Example 301, N-{4-[4-amino-7-(morpholin-2-ylmethyl)pyrrolo[2,1-f][1,2,4]triazin-5-yl]-2-fluorophenyl}-N′-[3-(trifluoromethyl)phenyl]urea]
